Reference: patent publication US20240376100A1 (Redona Therapeutics, Inc., priority 2021, published 2024)

Molecular target: PAPD5 enzyme (Homo sapiens, UniProt Q8NDF8)
Test: PAPD5 assay (AMP incorporation onto 3'-terminus of RNA substrate, fluorescence quench)
Assay type: biochemical
Conditions: PAPD5 protein 0.3 nM, ATP 50 μM, 30 minutes preincubation, room temperature; read-out: Potency PAPD5 IC50
Outline: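 Enzyme at 0.3 nM with 50 μM ATP, pH 7.3 HEPES buffer, preincubated with compound 30 minutes at room temperature; 5 nM 5′-fluorescein RNA substrate and 20 nM TAMRA quench probe then added. Initial rates from kinetic fluorescein decrease over ~90 minutes; IC50 by four-parameter fit.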

Sequence of PAPD5 enzyme (Q8NDF8 whole entry): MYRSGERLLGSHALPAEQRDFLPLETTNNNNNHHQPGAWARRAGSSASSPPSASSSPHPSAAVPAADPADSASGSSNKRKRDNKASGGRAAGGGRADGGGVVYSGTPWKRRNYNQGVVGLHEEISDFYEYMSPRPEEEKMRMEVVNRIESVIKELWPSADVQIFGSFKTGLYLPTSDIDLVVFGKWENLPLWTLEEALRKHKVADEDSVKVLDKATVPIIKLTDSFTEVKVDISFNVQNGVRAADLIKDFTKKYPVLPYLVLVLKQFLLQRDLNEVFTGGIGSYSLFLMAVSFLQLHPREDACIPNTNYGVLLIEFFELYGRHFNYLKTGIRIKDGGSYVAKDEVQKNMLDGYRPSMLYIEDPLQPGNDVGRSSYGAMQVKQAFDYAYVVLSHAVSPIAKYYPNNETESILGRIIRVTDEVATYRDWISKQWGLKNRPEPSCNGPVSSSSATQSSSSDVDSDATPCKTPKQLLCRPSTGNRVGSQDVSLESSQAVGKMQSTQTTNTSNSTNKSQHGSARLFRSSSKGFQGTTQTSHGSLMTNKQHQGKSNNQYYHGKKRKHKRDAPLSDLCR

IC50, ≤ 1000 nM:
Cc1cc(N2CCC2)ncc1-n1cc(C(=O)O)c(=O)c2cc(F)c(N3Cc4cccnc4C3)cc21 [Example 190, 1-(6-(azetidin-1-yl)-4-methylpyridin-3-yl)-7-(5,7-dihydro-6H-pyrrolo[3,4-b]pyridin-6-yl)-6-fluoro-4-oxo-1,4-dihydroquinoline-3-carboxylic acid]
Cc1cc(N(C)CCN(C)C)ncc1-n1cc(C(=O)O)c(=O)c2cc(Cl)c(N3Cc4cccnc4C3)nc21 [Example 192, 6-chloro-7-(5,7-dihydro-6H-pyrrolo[3,4-b]pyridin-6-yl)-1-(6-((2-(dimethylamino)ethyl)(methyl)amino)-4-methylpyridin-3-yl)-4-oxo-1,4-dihydro-1,8-naphthyridine-3-carboxylic acid]
Nc1ccc(-n2cc(C(=O)O)c(=O)c3cc(Cl)c(N4Cc5ccccc5C4)cc32)cn1 [Example 194, 1-(6-aminopyridin-3-yl)-6-chloro-7-(isoindolin-2-yl)-4-oxo-1,4-dihydroquinoline-3-carboxylic acid]
Nc1ccc(-n2cc(C(=O)O)c(=O)c3cc(F)c(N4Cc5ccccc5C4)cc32)cn1 [Example 195, 1-(6-aminopyridin-3-yl)-6-fluoro-7-(isoindolin-2-yl)-4-oxo-1,4-dihydroquinoline-3-carboxylic acid]
Cc1cc(NC(=O)OC(C)(C)C)ncc1-n1cc(C(=O)O)c(=O)c2cc(Cl)c(N3CCc4cnccc4C3)nc21 [Example 196, 1-(6-((tert-butoxycarbonyl)amino)-4-methylpyridin-3-yl)-6-chloro-7-(3,4-dihydro-2,6-naphthyridin-2(1H)-yl)-4-oxo-1,4-dihydro-1,8-naphthyridine-3-carboxylic acid]
Cc1cc(N)ncc1-n1cc(C(=O)O)c(=O)c2cc(Cl)c(N3CCc4cnccc4C3)nc21 [Example 197, 1-(6-amino-4-methylpyridin-3-yl)-6-chloro-7-(3,4-dihydro-2,6-naphthyridin-2(1H)-yl)-4-oxo-1,4-dihydro-1,8-naphthyridine-3-carboxylic acid]
Cc1cc(N)ncc1-n1cc(C(=O)O)c(=O)c2cc(Cl)c(N3CCc4ncncc4C3)nc21 [Example 198, 1-(6-amino-4-methylpyridin-3-yl)-6-chloro-7-(7,8-dihydropyrido[4,3-d]pyrimidin-6(5H)-yl)-4-oxo-1,4-dihydro-1,8-naphthyridine-3-carboxylic acid]
CCCc1cc(N)ncc1-n1cc(C(=O)O)c(=O)c2cc(Cl)c(N3Cc4cccnc4C3)cc21 [Example 199, 1-(6-amino-4-propylpyridin-3-yl)-6-chloro-7-(5,7-dihydro-6H-pyrrolo[3,4-b]pyridin-6-yl)-4-oxo-1,4-dihydroquinoline-3-carboxylic acid]
Cc1cc(NS(C)(=O)=O)ncc1-n1cc(C(=O)O)c(=O)c2cc(Cl)c(N3Cc4cccnc4C3)nc21 [Example 200, 6-chloro-7-(5,7-dihydro-6H-pyrrolo[3,4-b]pyridin-6-yl)-1-(4-methyl-6-(methylsulfonamido)pyridin-3-yl)-4-oxo-1,4-dihydro-1,8-naphthyridine-3-carboxylic acid]
O=C(O)c1cn(-c2cnc(N3CCC3)cn2)c2cc(N3Cc4cccnc4C3)c(Cl)cc2c1=O [Example 201, 1-(5-(azetidin-1-yl)pyrazin-2-yl)-6-chloro-7-(5,7-dihydro-6H-pyrrolo[3,4-b]pyridin-6-yl)-4-oxo-1,4-dihydroquinoline-3-carboxylic acid]
